Assay results as given in US20230265116A1, “DEGRADATION OF (EGFR) BY CONJUGATION OF EGFR INHIBITORS WITH E3 LIGASE LIGAND AND METHODS OF USE” (BEIGENE, LTD., priority 2020, published 2023).
Counter-ions that a name gives are not always drawn.

Experiments:
[1] = biological target: T1, EGFR L858R/T790M (H1975-clone #36, homozygous) (Homo sapiens, UniProt P00533, L858R/T790M); assay: EGFR degradation HTRF assay, H1975-clone #36 cells; assay type: cell-based; settings: H1975 #36, 16h treatment; for Dmax: NCI-H1975, maximum percentage of degradation
T1 construct: designed to specifically target WT EGFR but preserve the L858R/T790M copy; host or cells: H1975-clone #36
Method: H1975-clone #36(L858R/T790M). H1975 cell heterozygously (from ATCC) contains alleles of WT and L858R/T790M EGFR. H1975-clone #36(L858R/T790M) was generated by gene knockout, in which the EGFR targeting sgRNA was designed to specifically target WT EGFR but preserve the L858R/T790M copy. Followed by the gene knockout, the edited H1975 cells were seeded in 96 well plates at the concentration of 1 cell/well, cultured for about 2 weeks to allow single clones formation. The formed clones were screened by DNA sequencing for the desired edition. H1975-clone #36 was confirmed as a homozygous L858R/T790M EGFR clone.
(§1) BaF3 WT(wild type), BaF3-LTC(L858R/T790M/C797S) and BaF3-DTC(Del19/T790M/C797S) cells are treated with compounds diluted in 0.2% DMSO cell culture medium and incubate for 16h, 37° C., 5% CO2, H1975-#36, H1975-#28, H1975-#23 and HCC827 cells are treated with compounds diluted in 0.2% DMSO cell culture medium on day 2, incubate for 16h, 37° C., 5% CO2.the final concentriation of compounds in all assay is start with 10 uM, 5-fold dilution, total 8 doses were included.
(§2) After 16h treatment, add HTRF lysis buffer to each well; seal the plate and incubate 1 hour at room temperature on a plate shaker; Once the cells are lysed, 16 μL of cell lysate are transferred to a PE 384-well HTRF detection plate; 4 μL of pre-mixed HTRF antibodies are added to each well; Cover the plate with a plate sealer, spin 1000 rpm for 1 min, Incubate overnight at room temperature; Read on BMG PheraStar with HTRF protocol (337 nm-665 nm-620 nm).
(§3) The inhibition (degradation) percentage of the compound was calculated by the following equation: Inhibition percentage of Compound=100-100×(Signal-low control)/(High control-low control), wherein signal=each test compound group
(§4) High control=Cell group with added DMSO and without compound, indicating microplate readings without EGFR degradation;
(§5) Dmax is the maximum percentage of inhibition (degradation).
(§6) The IC50 (DC50) value of a compound can be obtained by fitting the following equation
(§7) Y=Bottom+(TOP−Bottom)/(1+((IC50/X)^hillslope))
(§8) Wherein, X and Y are known values, and IC50, Hillslope, Top and Bottom are the parameters obtained by fitting with software. Y is the inhibition percentage (calculated from the equation), X is the concentration of the compound; IC50 is the concentration of the compound when the 50% inhibition is reached. The smaller the IC50 value is, the stronger the inhibitory ability of the compound is. Vice versa, the higher the IC50 value is, the weaker the inhibitory ability of the compound is; Hillslope represents the slope of the fitted curve, generally around 1*; Bottom represents the minimum value of the curve obtained by data fitting, which is generally 0%±20%; Top represents the maximum value of the curve obtained by data fitting, which is generally 100%±20%. The experimental data were fitted by calculating and analyzing with Dotmatics data analysis software.

[2] = biological target: T2, EGFR (HCC827 cells) (Homo sapiens, UniProt P00533, DEL746-750); assay: EGFR degradation HTRF assay, HCC827 cells; assay type: cell-based; settings: HCC827, 16h treatment; for Dmax: maximum percentage of degradation
T2 construct: endogenous in cells; host or cells: HCC827
Method: as §1, §2, §3, §4, §5, §6, §7, §8

T1 sequence (P00533 25-1210 T790M/L858R): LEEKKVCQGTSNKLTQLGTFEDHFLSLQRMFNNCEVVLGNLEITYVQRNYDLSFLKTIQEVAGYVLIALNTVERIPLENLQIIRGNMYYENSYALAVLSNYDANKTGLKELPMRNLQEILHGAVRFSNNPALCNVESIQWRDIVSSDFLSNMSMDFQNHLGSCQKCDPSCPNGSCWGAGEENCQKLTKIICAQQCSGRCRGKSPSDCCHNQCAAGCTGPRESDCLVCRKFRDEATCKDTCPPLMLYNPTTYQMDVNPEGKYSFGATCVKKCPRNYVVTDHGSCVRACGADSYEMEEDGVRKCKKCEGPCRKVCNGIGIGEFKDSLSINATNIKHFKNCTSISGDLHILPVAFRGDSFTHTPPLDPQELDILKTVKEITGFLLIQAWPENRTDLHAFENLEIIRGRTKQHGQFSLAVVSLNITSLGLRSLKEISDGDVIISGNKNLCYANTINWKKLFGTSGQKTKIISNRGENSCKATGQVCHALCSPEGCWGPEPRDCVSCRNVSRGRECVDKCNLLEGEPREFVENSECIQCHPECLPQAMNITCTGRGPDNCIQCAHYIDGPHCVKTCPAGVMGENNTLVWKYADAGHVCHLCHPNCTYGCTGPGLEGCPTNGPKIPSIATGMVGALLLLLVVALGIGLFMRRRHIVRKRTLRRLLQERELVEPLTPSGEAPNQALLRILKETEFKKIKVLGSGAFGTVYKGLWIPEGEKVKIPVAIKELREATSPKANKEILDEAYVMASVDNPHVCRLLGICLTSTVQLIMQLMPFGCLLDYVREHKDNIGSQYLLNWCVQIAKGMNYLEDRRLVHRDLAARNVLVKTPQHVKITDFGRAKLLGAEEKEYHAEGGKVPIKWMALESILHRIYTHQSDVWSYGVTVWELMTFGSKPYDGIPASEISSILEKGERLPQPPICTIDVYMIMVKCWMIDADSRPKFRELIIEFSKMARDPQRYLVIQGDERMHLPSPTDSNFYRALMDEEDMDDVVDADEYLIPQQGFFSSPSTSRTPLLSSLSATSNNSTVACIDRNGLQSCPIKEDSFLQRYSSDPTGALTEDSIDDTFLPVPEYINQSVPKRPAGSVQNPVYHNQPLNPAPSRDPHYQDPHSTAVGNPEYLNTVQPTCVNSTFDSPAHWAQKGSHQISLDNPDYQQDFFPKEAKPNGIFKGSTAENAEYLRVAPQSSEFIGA
T2 sequence (P00533 with tags, fused parts or gaps DEL746-750): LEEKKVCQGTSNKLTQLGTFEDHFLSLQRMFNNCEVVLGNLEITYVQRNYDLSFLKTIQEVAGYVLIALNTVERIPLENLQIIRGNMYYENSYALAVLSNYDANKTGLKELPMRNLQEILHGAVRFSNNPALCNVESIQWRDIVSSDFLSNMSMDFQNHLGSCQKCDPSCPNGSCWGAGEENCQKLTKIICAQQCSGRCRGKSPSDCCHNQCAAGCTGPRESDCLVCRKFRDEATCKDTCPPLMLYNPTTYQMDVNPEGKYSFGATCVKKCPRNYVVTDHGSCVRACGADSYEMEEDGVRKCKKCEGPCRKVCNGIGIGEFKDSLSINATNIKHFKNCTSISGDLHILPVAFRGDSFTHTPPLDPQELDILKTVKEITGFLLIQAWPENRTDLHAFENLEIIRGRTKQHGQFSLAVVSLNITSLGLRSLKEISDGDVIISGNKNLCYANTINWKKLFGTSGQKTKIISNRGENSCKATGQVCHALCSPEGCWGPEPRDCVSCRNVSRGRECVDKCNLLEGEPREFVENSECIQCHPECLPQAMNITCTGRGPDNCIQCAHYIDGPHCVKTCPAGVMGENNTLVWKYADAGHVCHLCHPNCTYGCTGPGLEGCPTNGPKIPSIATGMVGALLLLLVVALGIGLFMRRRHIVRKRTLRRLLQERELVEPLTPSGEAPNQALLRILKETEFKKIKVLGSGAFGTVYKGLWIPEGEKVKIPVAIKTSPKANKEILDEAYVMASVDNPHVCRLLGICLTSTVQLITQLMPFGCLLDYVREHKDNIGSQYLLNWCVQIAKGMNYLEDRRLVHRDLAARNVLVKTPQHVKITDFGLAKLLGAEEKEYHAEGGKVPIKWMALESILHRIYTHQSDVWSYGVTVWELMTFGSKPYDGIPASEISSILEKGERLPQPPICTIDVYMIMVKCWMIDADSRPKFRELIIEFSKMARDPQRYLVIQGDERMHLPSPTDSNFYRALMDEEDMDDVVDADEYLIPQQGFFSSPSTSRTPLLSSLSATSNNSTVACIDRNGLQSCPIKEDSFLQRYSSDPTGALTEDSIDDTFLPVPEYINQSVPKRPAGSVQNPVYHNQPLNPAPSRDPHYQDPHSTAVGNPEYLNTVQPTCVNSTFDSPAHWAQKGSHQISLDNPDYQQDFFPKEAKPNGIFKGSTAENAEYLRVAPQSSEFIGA

DC50 [1]	Dmax [1]	DC50 [2]	Dmax [2]	SMILES
> 10000 nM	18.6%	17.5 nM	72.1%	COc1cc(N2CCC(N(C)CC3CCN(c4ccc(N5CCC(=O)NC5=O)cc4)CC3)CC2)c(C)cc1Nc1ncc(Br)c(Nc2ccc3nccnc3c2P(C)(C)=O)n1 [Example 79, 1-(4-(4-(((1-(4-((5-bromo-4-((5-(dimethylphosphoryl)quinoxalin-6-yl)amino)pyrimidin-2-yl)amino)-5-methoxy-2-methylphenyl)piperidin-4-yl)(methyl)amino)methyl)piperidin-1-yl)phenyl)dihydropyrimidine-2,4(1H,3H)-dione]
3.54 nM	54.5%	21.9 nM	68.7%	COc1cc(N2CCN(CC3CCN(c4ccc(C5CCC(=O)NC5=O)cc4)CC3)CC2)c(C)cc1Nc1ncc(Br)c(Nc2ccc3nccnc3c2P(C)(C)=O)n1 (stereo not drawn) [Example 88, 3-(4-(4-((4-(4-((5-bromo-4-((5-(dimethylphosphoryl)quinoxalin-6-yl)amino)pyrimidin-2-yl)amino)-5-methoxy-2-methylphenyl)piperazin-1-yl)methyl)piperidin-1-yl)phenyl)piperidine-2,6-dione]
> 10000 nM	18.7%	313 nM	56.2%	CCc1cc(Nc2ncc(Br)c(Nc3ccc4nccnc4c3P(C)(C)=O)n2)c(OC)cc1N1CCC(N2CCN(CCC3CCN(c4ccc(N5CCC(=O)NC5=O)cc4)CC3)CC2)CC1 [Example 55, 1-(4-(4-(2-(4-(1-(4-((5-bromo-4-((5-(dimethylphosphoryl)quinoxalin-6-yl)amino)pyrimidin-2-yl)amino)-2-ethyl-5-methoxyphenyl)piperidin-4-yl)piperazin-1-yl)ethyl)piperidin-1-yl)phenyl)dihydropyrimidine-2,4(1H,3H)-dione]
1.62 nM	82.5%	4.68 nM	85.2%	CCc1cc(Nc2ncc(Br)c(Nc3ccc4nccnc4c3P(C)(C)=O)n2)c(OC)cc1N1CCC(N2CCN(CC3CN(c4ccc5c(c4)C(=O)N(C4CCC(=O)NC4=O)C5=O)C3)CC2)CC1 (stereo not drawn) [Example 59, 5-(3-((4-(1-(4-((5-bromo-4-((5-(dimethylphosphoryl)quinoxalin-6-yl)amino)pyrimidin-2-yl)amino)-2-ethyl-5-methoxyphenyl)piperidin-4-yl)piperazin-1-yl)methyl)azetidin-1-yl)-2-(2,6-dioxopiperidin-3-yl)isoindoline-1,3-dione]
3.9 nM	88.5%	5.45 nM	78.5%	CCc1cc(Nc2ncc(Br)c(Nc3ccc4nccnc4c3P(C)(C)=O)n2)c(OC)cc1N1CCC(N2CCN(CCC3CN(c4ccc5c(c4)C(=O)N(C4CCC(=O)NC4=O)C5=O)C3)CC2)CC1 (stereo not drawn) [Example 58, 5-(3-(2-(4-(1-(4-((5-bromo-4-((5-(dimethylphosphoryl)quinoxalin-6-yl)amino)pyrimidin-2-yl)amino)-2-ethyl-5-methoxyphenyl)piperidin-4-yl)piperazin-1-yl)ethyl)azetidin-1-yl)-2-(2,6-dioxopiperidin-3-yl)isoindoline-1,3-dione]
5.22 nM	91.6%	14.2 nM	86.4%	COc1cc(N2CCN(C3CCN(CCc4ccc(C5CCC(=O)NC5=O)cc4)CC3)CC2)ccc1Nc1ncc(Cl)c(Nc2ccccc2N(C)S(C)(=O)=O)n1 (stereo not drawn) [Example 120, N-(2-((5-chloro-2-((4-(4-(1-(4-(2,6-dioxopiperidin-3-yl)phenethyl)piperidin-4-yl)piperazin-1-yl)-2-methoxyphenyl)amino)pyrimidin-4-yl)amino)phenyl)-N-methylmethanesulfonamide hydrochloride]
> 10000 nM	20.9%	73.3 nM	75%	COc1cc(N2CCC(N(C)CCCOc3ccc(N4CCC(=O)NC4=O)cc3)CC2)c(C)cc1Nc1ncc(Br)c(Nc2ccc3nccnc3c2P(C)(C)=O)n1 [Example 85, 1-(4-(3-((1-(4-((5-bromo-4-((5-(dimethylphosphoryl)quinoxalin-6-yl)amino)pyrimidin-2-yl)amino)-5-methoxy-2-methylphenyl)piperidin-4-yl)(methyl)amino)propoxy)phenyl)dihydropyrimidine-2,4(1H,3H)-dione]
6.23 nM	84.7%	59.6 nM	91.8%	COc1cc(N2CCN(CC3CCN(c4ccc(C5CCC(=O)NC5=O)cc4)CC3)CC2)ccc1Nc1ncc(Br)c(Nc2ccc3nccnc3c2P(C)(C)=O)n1 (stereo not drawn) [Example 89, 3-(4-(4-((4-(4-((5-bromo-4-((5-(dimethylphosphoryl)quinoxalin-6-yl)amino)pyrimidin-2-yl)amino)-3-methoxyphenyl)piperazin-1-yl)methyl)piperidin-1-yl)phenyl)piperidine-2,6-dione]
		35.9 nM	74.4%	COc1cc(N2CCC(N(C)CCC3CCN(c4ccc(N5CCC(=O)NC5=O)cc4)CC3)CC2)c(C)cc1Nc1ncc(Br)c(Nc2ccc3nccnc3c2P(C)(C)=O)n1 [Example 80, 1-(4-(4-(2-((1-(4-((5-bromo-4-((5-(dimethylphosphoryl)quinoxalin-6-yl)amino)pyrimidin-2-yl)amino)-5-methoxy-2-methylphenyl)piperidin-4-yl)(methyl)amino)ethyl)piperidin-1-yl)phenyl)dihydropyrimidine-2,4(1H,3H)-dione]
		6.22 nM	89.4%	COc1cc(N2CCC(N3CCN(C(=O)C4CCN(CC5CCN(c6ccc7c(c6)C(=O)N(C6CCC(=O)NC6=O)C7=O)CC5)CC4)CC3)CC2)ccc1Nc1ncc(Cl)c(Nc2ccccc2NS(C)(=O)=O)n1 (stereo not drawn) [Example 142, N-(2-((5-chloro-2-((4-(4-(4-(1-((1-(2-(2,6-dioxopiperidin-3-yl)-1,3-dioxoisoindolin-5-yl)piperidin-4-yl)methyl)piperidine-4-carbonyl)piperazin-1-yl)piperidin-1-yl)-2-methoxyphenyl)amino)pyrimidin-4-yl)amino)phenyl)methanesulfonamide]
		50.6 nM	72.1%	COc1cc(N2CCC(N(C)CCc3ccc(C4CCC(=O)NC4=O)cc3)CC2)c(C)cc1Nc1ncc(Br)c(Nc2ccc3nccnc3c2P(C)(C)=O)n1 (stereo not drawn) [Example 75, 3-(4-(2-((1-(4-((5-bromo-4-((5-(dimethylphosphoryl)quinoxalin-6-yl)amino)pyrimidin-2-yl)amino)-5-methoxy-2-methylphenyl)piperidin-4-yl)(methyl)amino)ethyl)phenyl)piperidine-2,6-dione]
		57.5 nM	86.2%	COc1cc(N2CCN(CCc3ccc(C4CCC(=O)NC4=O)cn3)CC2)c(C)cc1Nc1ncc(Br)c(Nc2ccc3nccnc3c2P(C)(C)=O)n1 (stereo not drawn) [Example 87, 3-(6-(2-(4-(4-((5-bromo-4-((5-(dimethylphosphoryl)quinoxalin-6-yl)amino)pyrimidin-2-yl)amino)-5-methoxy-2-methylphenyl)piperazin-1-yl)ethyl)pyridin-3-yl)piperidine-2,6-dione]
		306 nM	76.8%	COc1cc(N2CCN(CCCOc3ccc(OC4CCC(=O)NC4=O)cc3)CC2)c(C)cc1Nc1ncc(Br)c(Nc2ccc3nccnc3c2P(C)(C)=O)n1 (stereo not drawn) [Example 92, 3-(4-(3-(4-(4-((5-bromo-4-((5-(dimethylphosphoryl)quinoxalin-6-yl)amino)pyrimidin-2-yl)amino)-5-methoxy-2-methylphenyl)piperazin-1-yl)propoxy)phenoxy)piperidine-2,6-dione]
